# How the values were obtained:
# MCF7 = experiment: Antiproliferative activity against human MCF7 cells assessed as reduction in cell viability after 48 hrs by MTT assay; type: functional, cell-based; conditions: MCF7, 48 h
# MDA-MB-231 = experiment: Antiproliferative activity against human MDA-MB-231 cells assessed as reduction in cell viability after 48 hrs by MTT assay; type: functional, cell-based; conditions: MDA-MB-231, 48 h
# PANC-1 [1] = experiment: Antiproliferative activity against human PANC-1 cells assessed as reduction in cell viability after 48 hrs by MTT assay; type: functional, cell-based; conditions: PANC-1, 48 h
# Caco-2 = experiment: Antiproliferative activity against human Caco-2 cells assessed as reduction in cell viability after 48 hrs by MTT assay; type: functional, cell-based; conditions: Caco-2, 48 h
# MRC5 = experiment: Antiproliferative activity against human MRC5 cells assessed as reduction in cell viability after 48 hrs by MTT assay; type: cell-based; conditions: MRC5, 48 h
# PANC-1 [2] = experiment: Induction of cell cycle arrest in human PANC-1 cells assessed as accumulation of cells at G0/G1 phase at 5 uM incubated for 48 hrs propidium iodide-A staining-based flow cytometric analysis (reference value: 48.58%); type: functional
# PANC-1 [3] = experiment: Induction of cell cycle arrest in human PANC-1 cells assessed as accumulation of cells at S phase at 5 uM incubated for 48 hrs propidium iodide-A staining-based flow cytometric analysis (reference value: 44.71%); type: functional
# PANC-1 [4] = experiment: Induction of cell cycle arrest in human PANC-1 cells assessed as accumulation of cells at G2/M phase at 5 uM incubated for 48 hrs propidium iodide-A staining-based flow cytometric analysis (reference value: 6.71%); type: functional
# PANC-1 [5] = experiment: Induction of cell cycle arrest in human PANC-1 cells assessed as accumulation of cells at G0/G1 phase at 10 uM incubated for 48 hrs propidium iodide-A staining-based flow cytometric analysis (reference value: 48.58%); type: functional
# PANC-1 [6] = experiment: Induction of cell cycle arrest in human PANC-1 cells assessed as accumulation of cells at S phase at 10 uM incubated for 48 hrs propidium iodide-A staining-based flow cytometric analysis (reference value: 44.71%); type: functional
# PANC-1 [7] = experiment: Induction of cell cycle arrest in human PANC-1 cells assessed as accumulation of cells at G2/M phase at 10 uM incubated for 48 hrs propidium iodide-A staining-based flow cytometric analysis (reference value: 6.71%); type: functional
# PANC-1 [8] = experiment: Induction of apoptosis in human PANC-1 cells assessed as viable cells at 5 uM incubated for 48 hrs by annexin V FITC and propidium iodide staining based flow cytometry analysis (reference value: 99.5%); type: functional; conditions: read-out: Activity
# PANC-1 [9] = experiment: Induction of apoptosis in human PANC-1 cells assessed as early apoptotic cells at 5 uM incubated for 48 hrs by annexin V FITC and propidium iodide staining based flow cytometry analysis (reference value: 0.2%); type: functional
# PANC-1 [10] = experiment: Induction of apoptosis in human PANC-1 cells assessed as late apoptotic cells at 5 uM incubated for 48 hrs by annexin V FITC and propidium iodide staining based flow cytometry analysis (reference value: 0.1%); type: functional
# PANC-1 [11] = experiment: Induction of apoptosis in human PANC-1 cells assessed as necrotic cells at 5 uM incubated for 48 hrs by annexin V FITC and propidium iodide staining based flow cytometry analysis (reference value: 0%); type: functional
# PANC-1 [12] = experiment: Induction of apoptosis in human PANC-1 cells assessed as viable cells at 10 uM incubated for 48 hrs by annexin V FITC and propidium iodide staining based flow cytometry analysis (reference value: 99.5%); type: functional; conditions: read-out: Activity
# PANC-1 [13] = experiment: Induction of apoptosis in human PANC-1 cells assessed as early apoptotic cells at 10 uM incubated for 48 hrs by annexin V FITC and propidium iodide staining based flow cytometry analysis (reference value: 0.2%); type: functional
# PANC-1 [14] = experiment: Induction of apoptosis in human PANC-1 cells assessed as late apoptotic cells at 10 uM incubated for 48 hrs by annexin V FITC and propidium iodide staining based flow cytometry analysis (reference value: 0.1%); type: functional
# PANC-1 [15] = experiment: Induction of apoptosis in human PANC-1 cells assessed as necrotic cells at 10 uM incubated for 48 hrs by annexin V FITC and propidium iodide staining based flow cytometry analysis (reference value: 0%); type: functional
# PANC-1 [16] = experiment: Induction of apoptosis in human PANC-1 cells assessed as increase in caspase 3 activity; type: functional, cell-based; conditions: dose 5-10 µM
# PANC-1 [17] = experiment: Induction of apoptosis in human PANC-1 cells assessed as increase in caspase 9 activity; type: functional, cell-based; conditions: dose 5-10 µM
SMILES,IC50 (MCF7),IC50 (MDA-MB-231),IC50 (PANC-1 [1]),IC50 (Caco-2),IC50 (MRC5),other results
Nc1ccn([C@@H]2O[C@H](CO)[C@@H](O)C2(F)F)c(=O)n1 [GEMCITABINE],6.1 µM,8 µM,4.2 µM,9.4 µM,80 µM,–
COc1ccc(/C=C/c2nnc(-c3[nH]nc4c3Cc3cc(OC)ccc3-4)o2)cc1,60.2 µM,16.6 µM,17.4 µM,10.6 µM,54 µM,–
COc1cc2c(cc1OC)-c1n[nH]c(-c3nnc(/C=C/c4ccccc4)o3)c1C2,32.9 µM,11.5 µM,30.9 µM,15 µM,65 µM,–
COc1cc(/C=C/c2nnc(-c3[nH]nc4c3Cc3ccccc3-4)o2)cc(OC)c1OC,37.2 µM,18.4 µM,24.2 µM,31.7 µM,55 µM,–
COc1cc2c(cc1OC)-c1n[nH]c(-c3nnc(/C=C/c4cc(OC)c(OC)c(OC)c4)o3)c1C2,14.4 µM,13.5 µM,18.4 µM,57.4 µM,77 µM,–
COc1ccc(/C=C/c2nnc(-c3[nH]nc4c3Cc3cc(OC)c(OC)cc3-4)o2)cc1,10.1 µM,25 µM,27.3 µM,14.9 µM,89 µM,–
COc1ccc(/C=C/c2nnc(-c3[nH]nc4c3Cc3cc(F)ccc3-4)o2)cc1OC,18.1 µM,17.6 µM,23 µM,18.7 µM,58 µM,–
COc1ccc(/C=C/c2nnc(-c3[nH]nc4c3Cc3cc(F)ccc3-4)o2)cc1,63.8 µM,37.2 µM,39.9 µM,15.6 µM,52 µM,–
COc1cc(/C=C/c2nnc(-c3[nH]nc4c3Cc3cc(F)ccc3-4)o2)cc(OC)c1OC,44.8 µM,17.2 µM,15.5 µM,16.1 µM,61 µM,–
COc1ccc(/C=C/c2nnc(-c3[nH]nc4c3Cc3cc(OC)c(OC)cc3-4)o2)cc1OC,14.5 µM,23.2 µM,> 100 µM,22.7 µM,63 µM,–

# Continued, in another order:
IC50 (MCF7),IC50 (MDA-MB-231),IC50 (PANC-1 [1]),IC50 (Caco-2),SMILES,IC50 (MRC5),other results
41.9 µM,18.5 µM,18.3 µM,17.7 µM,O=[N+]([O-])c1ccc(/C=C/c2nnc(-c3[nH]nc4c3Cc3ccccc3-4)o2)cc1,66 µM,–
17.1 µM,13.5 µM,20.6 µM,39.7 µM,COc1ccc(/C=C/c2nnc(-c3[nH]nc4c3Cc3ccccc3-4)o2)cc1,38 µM,–
20.6 µM,21.3 µM,7.4 µM,57.1 µM,COc1ccc2c(c1)Cc1c-2n[nH]c1-c1nnc(/C=C/c2ccc([N+](=O)[O-])cc2)o1,41 µM,Activity (PANC-1 [2]): 36.55%; Activity (PANC-1 [3]): 46.6%; Activity (PANC-1 [4]): 17.85%; Activity (PANC-1 [5]): 32.78%; Activity (PANC-1 [6]): 59.87%; Activity (PANC-1 [7]): 7.35%; viability at 5 µM (PANC-1 [8]): 76.7%; Activity (PANC-1 [9]): 1.9%; Activity (PANC-1 [10]): 16.5%; Activity (PANC-1 [11]): 4.6%; viability at 10 µM (PANC-1 [12]): 60.3%; Activity (PANC-1 [13]): 5.5%; Activity (PANC-1 [14]): 27.2%; Activity (PANC-1 [15]): 7.5%; Activity (PANC-1 [16]): Dose-Dependent Effect; Activity (PANC-1 [17]): Dose-Dependent Effect
56.2 µM,26 µM,36.4 µM,22.8 µM,COc1ccc(/C=C/c2nnc(-c3[nH]nc4c3Cc3ccccc3-4)o2)cc1OC,63 µM,–
22.7 µM,18.7 µM,> 50 µM,14.8 µM,C(=C\c1nnc(-c2[nH]nc3c2Cc2ccccc2-3)o1)/c1ccccc1,45 µM,–
20.2 µM,16.3 µM,4.3 µM,20 µM,COc1cc2c(cc1OC)-c1n[nH]c(-c3nnc(/C=C/c4ccc([N+](=O)[O-])cc4)o3)c1C2,49 µM,Activity (PANC-1 [2]): 42.09%; Activity (PANC-1 [3]): 53.38%; Activity (PANC-1 [4]): 4.26%; Activity (PANC-1 [5]): 24.94%; Activity (PANC-1 [6]): 73.06%; Activity (PANC-1 [7]): 2%; viability at 5 µM (PANC-1 [8]): 64.1%; Activity (PANC-1 [10]): 27.5%; Activity (PANC-1 [11]): 1.2%; viability at 10 µM (PANC-1 [12]): 52.2%; Activity (PANC-1 [13]): 2.5%; Activity (PANC-1 [14]): 31.2%; Activity (PANC-1 [15]): 10.3%; Activity (PANC-1 [16]): Dose-Dependent Effect; Activity (PANC-1 [17]): Dose-Dependent Effect
67.6 µM,12.8 µM,26 µM,13.1 µM,COc1ccc2c(c1)Cc1c-2n[nH]c1-c1nnc(/C=C/c2ccccc2)o1,65 µM,–
60.4 µM,18 µM,21.5 µM,15.9 µM,Fc1ccc2c(c1)Cc1c-2n[nH]c1-c1nnc(/C=C/c2ccccc2)o1,66 µM,–
–,21.9 µM,16.8 µM,> 100 µM,O=[N+]([O-])c1ccc(/C=C/c2nnc(-c3[nH]nc4c3Cc3cc(F)ccc3-4)o2)cc1,89 µM,–

# — ChEMBL document CHEMBL4834439, “New indenopyrazole linked oxadiazole conjugates as anti-pancreatic cancer agents: Design, synthesis, in silico studies including 3D-QSAR analysis” (Bioorg Med Chem Lett, 2021)
